Measurements as given in ChEMBL document CHEMBL1136862, “Development of thioquinazolinones, allosteric Chk1 kinase inhibitors” (Bioorg Med Chem Lett, 2009).

Assays:
[1] = biological target: T1, Serine/threonine-protein kinase Chk1 (Homo sapiens, UniProt O14757); assay: Inhibition of C-terminal 6-His tagged human Chk1 by HTRF assay in presence of 0.1 mM ATP
T1 sequence (O14757 whole entry): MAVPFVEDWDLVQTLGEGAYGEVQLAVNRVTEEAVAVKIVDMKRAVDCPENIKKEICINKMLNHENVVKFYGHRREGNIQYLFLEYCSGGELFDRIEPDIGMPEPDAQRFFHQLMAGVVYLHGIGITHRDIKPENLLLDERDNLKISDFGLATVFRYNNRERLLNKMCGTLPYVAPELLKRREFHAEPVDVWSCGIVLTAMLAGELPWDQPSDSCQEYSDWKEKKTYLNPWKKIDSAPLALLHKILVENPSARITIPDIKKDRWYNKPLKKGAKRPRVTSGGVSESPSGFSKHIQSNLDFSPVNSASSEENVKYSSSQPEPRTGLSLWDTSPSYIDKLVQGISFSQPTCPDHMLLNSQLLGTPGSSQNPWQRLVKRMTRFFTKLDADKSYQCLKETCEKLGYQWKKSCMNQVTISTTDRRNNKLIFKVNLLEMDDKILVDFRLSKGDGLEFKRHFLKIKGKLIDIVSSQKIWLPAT

[2] = biological target: T2, Serine/threonine-protein kinase Chk1 (Homo sapiens) (UniProt O14757); assay: Inhibition of C-terminal 6-His tagged human Chk1 at 100 uM by HTRF assay in presence of 0.1 mM ATP
T2 sequence (whole entry): T1 sequence (O14757 whole entry)

[3] = biological target: T1, Serine/threonine-protein kinase Chk1; assay: Inhibition of C-terminal 6-His tagged human Chk1 by HTRF assay in presence of 2.0 mM ATP

| Structure (SMILES) | IC50 [1] | inhibition [2] | other results |
| --- | --- | --- | --- |
| CCCCC(Sc1nc2ccccc2c(=O)n1-c1ccccc1)C(=O)N1CCN(c2ccccc2)CC1 (stereo not drawn) | 3.3 µM | – | – |
| CCCCC(Sc1nc2ccccc2c(=O)n1-c1ccccc1)C(=O)NC1CC2CCC1C2 (stereo not drawn) | – | 3% | – |
| CC(C)C(Sc1nc2ccccc2c(=O)n1-c1cccc(Cl)c1)C(=O)N1CCC(C(N)=O)CC1 (stereo not drawn) | > 100 µM | – | – |
| CCCCC(Sc1nc2c(O)cccc2c(=O)n1-c1cccc(Cl)c1)C(=O)N1CCC(C(N)=O)CC1 (stereo not drawn) | 20 µM | – | – |
| CCCCC(Sc1nc2ccccc2c(=O)n1-c1ccccc1Cl)C(=O)N1CCC(C(N)=O)CC1 (stereo not drawn) | 41 µM | – | – |
| CCCCC(Sc1nc2ccccc2c(=O)n1-c1ccccc1)C(=O)NC(C)(C)C (stereo not drawn) | > 100 µM | – | – |
| CCCCC(Sc1nc2ccccc2c(=O)n1-c1cccnc1)C(=O)N1CCC(C(N)=O)CC1 (stereo not drawn) | – | 35% | – |
| CCCCC(Sc1nc2ccccc2c(=O)n1-c1ccccc1)C(=O)NC12CC3CC(CC(C3)C1)C2 (stereo not drawn) | > 100 µM | – | – |
| CCCCC(Sc1nc2ccccc2c(=O)n1-c1ccccc1)C(=O)N(CC)CC (stereo not drawn) | – | 62% | – |
| CCCCC(Sc1nc2c(C)cccc2c(=O)n1-c1cccc(Cl)c1)C(=O)N1CCC(C(N)=O)CC1 (stereo not drawn) | 17 µM | – | – |
| CCCCC(Sc1nc2ccccc2c(=O)n1C(C)C)C(=O)N1CCC(C(N)=O)CC1 (stereo not drawn) | – | 20% | – |
| CCCCC(Sc1nc2ccccc2c(=O)n1-c1ccccc1)C(=O)N1CCS(=O)(=O)CC1 (stereo not drawn) | 6 µM | – | – |
| CCCCC(Sc1nc2ccc(C)cc2c(=O)n1-c1cccc(Cl)c1)C(=O)N1CCC(C(N)=O)CC1 (stereo not drawn) | – | 30% | – |
| CCCCC(Sc1nc2ccccc2c(=O)n1-c1ccnc(Cl)c1)C(=O)N1CCC(C(N)=O)CC1 (stereo not drawn) | – | 20% | – |
| CCCCC(Sc1nc2ccccc2c(=O)n1-c1ccccc1)C(=O)N1CCC(c2ccccc2)(c2ccccc2)CC1 (stereo not drawn) | 4.5 µM | – | – |
| CCCCC(Sc1nc2cccc(C)c2c(=O)n1-c1cccc(Cl)c1)C(=O)N1CCC(C(N)=O)CC1 (stereo not drawn) | > 100 µM | – | – |
| NC(=O)C1CCN(C(=O)C(Sc2nc3ccccc3c(=O)n2-c2cccc(Cl)c2)c2ccccc2)CC1 (stereo not drawn) | 21 µM | – | – |
| CCCCC(Sc1nc2ccccc2c(=O)n1C)C(=O)N1CCC(C(N)=O)CC1 (stereo not drawn) | – | 48% | – |
| CCCCC(Sc1nc2ccccc2c(=O)n1-c1ccc(Cl)cc1)C(=O)N1CCC(C(N)=O)CC1 (stereo not drawn) | > 100 µM | – | – |
| CCCCC(Sc1nc2ccccc2c(=O)n1Cc1cccnc1)C(=O)N1CCC(C(N)=O)CC1 (stereo not drawn) | – | 26% | – |
| CCCCC(Sc1nc2c(OC)cccc2c(=O)n1-c1cccc(Cl)c1)C(=O)N1CCC(C(N)=O)CC1 (stereo not drawn) | 21 µM | – | – |
| CC(C)CC(Sc1nc2ccccc2c(=O)n1-c1cccc(Cl)c1)C(=O)N1CCC(C(N)=O)CC1 (stereo not drawn) | 2.8 µM | – | – |
| CCCCC(Sc1nc2ccccc2c(=O)n1-c1ccccc1)C(=O)N1CCCC2(CCCNC2)C1 (stereo not drawn) | 3.8 µM | – | – |
| CCCCC(Sc1nc2ccccc2c(=O)n1-c1ccccc1)C(=O)N1CCC(C(N)=O)CC1 (stereo not drawn) | 17 µM | – | IC50 [3]: 24 µM |
| CCCCC(Sc1nc2cc(C)ccc2c(=O)n1-c1cccc(Cl)c1)C(=O)N1CCC(C(N)=O)CC1 (stereo not drawn) | 28 µM | – | – |
| CCCCC(Sc1nc2ccccc2c(=O)n1-c1ccccc1)C(=O)NC1CCCCC1 (stereo not drawn) | > 100 µM | – | – |
| CCCCC(Sc1nc2ccccc2c(=O)n1C1CCCCC1)C(=O)N1CCC(C(N)=O)CC1 (stereo not drawn) | – | 17% | – |
